Results from article PMC12040169 (PLOS Biology, 2025).

assay: in vitro; settings: human, hela cells, % viability

| Compound | viability at 28.5 h, 10 µM [%] |
| --- | --- |
| O=C(O)c1ccc(CN2CCC[C@H]2c2nc(-c3ccc(F)cn3)no2)cc1 [CBK288896] | 96.9 |
| CCOC(=O)c1ccc(-c2ccc(OC)cc2)cc1 [CBK002658] | 95.2 |
| CSCCC(=O)N1CCC(Cn2cncn2)(C2CCCCC2)CC1 [CBK136799] | 102 |
| O=c1[nH]c2ncc(-c3cccc(OC(F)(F)F)c3)nc2n1C1CCCCC1 [CBK064187] | 93.6 |
| O=S(=O)(c1ccc2ccccc2c1)N1CCN(C2CCC(c3ccccc3)CC2)CC1 (stereo not shown) [CBK264152] | 103 |
| Cc1cccn2cc(CCNC(=O)N[C@H](C)C(=O)N(C)C)nc12 [CBK304617] | 110 |
| O=C(CCN1CCn2nc(C(O)C3CC3)cc2C1)NCc1cccs1 (stereo not shown) [CBK306603] | 93.1 |
| CC1(NC(=O)c2cccc(OCCN3CCCC3=O)c2)CCC1 [CBK281602] | 92.8 |
| COC(Cc1nc2ccccc2s1)C(=O)O (stereo not shown) [CBK265806] | 101 |
| Cc1cc(C)nc(Nc2n[nH]c(-c3ccc(N)cc3)n2)n1 [CBK267131] | 99.5 |
| Cc1ccc(N2CCCC2=O)cc1S(=O)(=O)NC(c1ccccc1)c1ccccc1 [CBK286348] | 85.6 |
| Cc1ccc(C2c3c(O)n[nH]c3CC(C)(O)C2C(=O)OCc2ccccc2)cc1 (stereo not shown) [CBK269417] | 92.8 |
| O=C(O)CCn1oc(=O)c2ccccc21 [CBK020340] | 89.8 |
| N#CC1CCCc2c1[nH]c1ccc(Cl)cc21 (stereo not shown) [CBK101438] | 63.9 |
| O=C(c1ccc(-c2cnc3[nH]c(=O)n(C4CCCCC4)c3n2)cc1)N1CCOCC1 [CBK064566] | 106 |
| O=C(c1cccs1)N1CCC[C@@H]1Cn1c(=O)oc2ccccc21 [CBK284528] | 102 |
| Cc1cc(OCC(=O)N2CCN(c3ccccc3F)CC2)no1 [CBK305898] | 87.1 |
| Cc1cc(NS(=O)(=O)c2ccc(Oc3ccccc3)cc2)n(C)n1 [CBK067249] | 96.2 |
| O=C(NC1CC(=O)N(CC(F)(F)F)C1)c1cnc(-c2ccncc2)s1 (stereo not shown) [CBK305546] | 78 |

| Compound | viability at 28.5 h, 10 µM [%] |
| --- | --- |
| COc1ccc(NC(=O)CSc2nnc(C3CC3)n2C)c(OC)c1 [CBK270303] | 81.9 |
| Cc1cnc(CNS(=O)(=O)c2cnn(-c3ccccc3)c2C)cn1 [CBK062335] | 96.5 |
| O=C(O)CCN1C(=O)c2ccc(Oc3ccc(NC(=O)c4ccc(Cl)c(Cl)c4)cc3)cc2C1=O [CBK267400] | 90.6 |
| c1ccc2c(CCNc3nccnc3-c3ccoc3)c[nH]c2c1 [CBK036743] | 102 |
| Cc1ccc2[nH]cc(CCN3CCC4(C3)OCCc3c4[nH]c4ccccc34)c2c1 (stereo not shown) [CBK061790] | 84.7 |
| COc1ccccc1C1(NC(=O)c2c(C)noc2C)CCCC1 [CBK283644] | 95 |
| CCOC(=O)CSc1nc(-c2ccc3c(c2)OCO3)ccc1C#N [CBK270262] | 87.6 |
| FC(F)(F)Sc1ccc(COc2cccc3cccnc23)cc1 [CBK002776] | 94.5 |
| O=C(CCn1c(-c2cccnc2)cc2cccnc21)NC1CC1 [CBK282622] | 95.9 |
| Cn1nccc1CNCc1c(Br)cc(F)c(F)c1N1CCCCC1 [CBK306284] | 92.8 |
| Cc1cc2c(o1)c1cnn(CC(=O)N3CCCC(C)C3)c(=O)c1n2C (stereo not shown) [CBK284218] | 85 |
| CCCCNC(=O)OC1CCN(CCc2ccccc2)CC1 [CBK022839C] | 89.2 |
| Cc1nnc(SCC(=O)NC2CC3CCC2C3)[nH]1 (stereo not shown) [CBK270239] | 88.1 |
| O=C(Nc1nnc(Cc2cccs2)o1)c1ccccc1 [CBK287831] | 83.9 |
| N#Cc1c(N)nc2c(c1-c1cccnc1)CCCC2 [CBK287885] | 85.8 |
| c1ccc2nc3c(nc2c1)sc1nc2ccccc2n13 [CBK268872] | 104 |
| Fc1cccc(Cl)c1CNc1ccc(CNc2ncn[nH]2)cc1 [CBK267245] | 93.1 |
| CC(NC(=O)CCc1ccncc1)c1ccc2c(c1)CCCO2 (stereo not shown) [CBK281624] | 88.3 |
